The nature of series [1]: Pharmacokinetics in fasted Beagle dogs. It is filed as in vivo. The settings on record: dog, plasma; for half-life: in 5% glucose solution, non-compartmental, read-out: Plasma half-life T½ (converted); for bioavailability: intravenous and oral administration in 5% glucose solution, read-out: Oral bioavailability Fpo. How it is done:
The pharmakokinetic data were obtained by following procedure:
The pharmacokinetics of the test compounds were investigated in fasted Beagle dogs.
Intravenous and oral administration of the test compound, in 5% glucose solution, was separated by a one weeks washout.
Blood samples were collected immediately before drug administration (time zero) and than 0.08, 0.25, 0.50, 0.75, 1.0, 1.5, 2.0, 3.0, 4.0, 5.0, and 6.0 hours after administration.
The plasma samples were stored frozen (<−18° C.) pending analysis.
An HPLC method with solid phase extraction and UV detection was used for the quantification of the compound in plasma.
The pharmacokinetic parameters for compounds were calculated by non-compartmental methods using the PC based pharmacokinetic software WinNonlin, version 1.1 (Scientific Consulting Inc., Apex, N.C., USA).

The subject of series [2] is trypsin, chymotrypsin and elastase. As to the kind of experiment: Metabolic stability in pancreatic enzyme mix (ESMS, SIM signal). The settings on record: chymotrypsin and elastase in 100 mM ammoniumbicarbonate pH 8.0, 37° C., 24 h, decrease in SIM signal.
Experimental: (§1) Compounds is dissolved at a concentration of 1 mg/ml in water. 25 ml of this solution is added to 175 ml of the respective enzyme-solution (resulting in an enzyme:substrate ratio (w/w) of approximately 1:5). The solution is left at 37° C. overnight. 10 ml of the various degradation solutions is analyzed against a corresponding zero-sample using flow injection electrospray mass spectrometry (ESMS) with selected ion monitoring of the molecular ion. If the signal has decreased more than 20% compared to the zero-sample, the remainder of the solution is analyzed by HPLC and mass spectrometry in order to identify the extent and site(s) of degradation precisely.
Pancreatic enzyme mix: trypsin, chymotrypsin and elastase in 100 mM ammoniumbicarbonate pH 8.0 (all concentrations 0.025 mg/ml).
(§2) Mass spectrometric analysis was performed using two different mass spectrometers. A Sciex API III triple quadrupole LC-MS instrument (Sciex instruments, Thornhill, Ontario) equipped with an electrospray ion-source and a Bio-Ion 20 time-of-flight Plasma Desorption instrument (Bio-Ion Nordic AB, Uppsala, Sweden).
(§3) Quantification of the compounds (before and after degradation) was done on the API III instrument using single ion monitoring of the molecular ion in question with flow injection of the analyte. […]
The subject of a further series is carboxypeptidase Y and B. As to the kind of experiment: Metabolic stability in carboxypeptidase mix (ESMS, SIM signal). The settings on record: carboxypeptidase Y and B in 50 mM ammoniumacetate pH 4.5, 37° C., 24 h, decrease in SIM signal.

Each structure is given as a SMILES string. Square brackets hold non-standard residues; d marks the D form. Peptide text beside a SMILES is read from it. d2Nal = N[C@H](Cc1ccc2ccccc2c1)C(=O)O

Experimental for carboxypeptidase Y and B: as §1
Carboxypeptidase mix: carboxypeptidase Y and B in 50 mM ammoniumacetate pH 4.5 (all concentrations 0.025 mg/ml).
as §2, §3

On to `CN(CCc1ccccn1)C(=O)[C@@H](Cc1ccccc1)N(C)C(=O)[C@@H](Cc1ccc2ccccc2c1)N(C)C(=O)/C=C/CC(C)(C)N` [Example 1, (2E)-5-Amino-5-methylhex-2-enoic acid N-methyl-N-[(1R)-1-(N-methyl-N-{(1R)-1-[N-methyl-N-(2-(2-pyridinyl)ethyl)carbamoyl]-2-phenylethyl}carbamoyl)-2-(2-naphthyl)ethyl]amide], for which, in series [1], the half-life (commonly how long it takes for the measured level to halve) is 2 h and the bioavailability stood at 34%.

On to `C[C@H](NC(=O)[C@@H](Cc1c[nH]c2ccccc12)NC(=O)[C@@H](N)Cc1c[nH]cn1)C(=O)N[C@@H](Cc1c[nH]c2ccccc12)C(=O)N[C@H](Cc1ccccc1)C(=O)N[C@@H](CCCCN)C(N)=O` [GHRP-6] (H-H[dW]AW[dF]K-NH2), for which, in series [2], the “Pan. enzyme mix (stability)” value is on record as “− (Unstable (more than 20% decrease in SIM signal after 24 h in degradation solution))”. Moreover, in the series on carboxypeptidase Y and B, the “Carboxy-peptidase mix (stability)” value is recorded as “− (Unstable (more than 20% decrease in SIM signal after 24 h in degradation solution))”.

In the case of `CN(C(=O)/C=C/CC(C)(C)N)[C@H](Cc1ccc2ccccc2c1)C(=O)N(C)[C@H](Cc1ccccc1)C(=O)NCCc1ccncc1` [Example 408 from WO 9723508], in series [1], the half-life was 3.89 h and the bioavailability stood at 26%.

Consider `C[C@H](NC(=O)[C@@H](Cc1ccc2ccccc2c1)NC(=O)[C@@H](C)N)C(=O)N[C@@H](Cc1c[nH]c2ccccc12)C(=O)N[C@H](Cc1ccccc1)C(=O)N[C@@H](CCCCN)C(N)=O` [GHRP-2] (H-[dA][d2Nal]AW[dF]K-NH2), for which the “Pan. enzyme mix (stability)” value in series [2] is recorded as “− (Unstable (more than 20% decrease in SIM signal after 24 h in degradation solution))”. For the same molecule, the “Carboxy-peptidase mix (stability)” value with carboxypeptidase Y and B was “− (Unstable (more than 20% decrease in SIM signal after 24 h in degradation solution))”.

These data come from patent publication US6566337B1, “Compounds with growth hormone releasing properties” (Novo Nordisk A/S, priority 1998, dated 2003).
